Tested on: Tétranychus urticae
Assay: Adulticide test on Tétranychus urticae (treated bean plants)
Type: in vivo
Settings: bean plants sprayed at different doses, infested with 25 females per leaf, 22-23°C, 60-65% relative humidity; live and dead mites counted 24 h and 48 h after treatment
From the text: On utilise des plants de haricots comportant deux feuilles qui sont traitées au pistolet Fisher à différentes doses des produits à tester. Après séchage, ces plants sont infestés à raison de 25 femelles de Tétranychus urticae par feuille et maintenus à 22-23◊C, 60 - 65% d'humidité relative. Les dénombrements des acariens vivants et morts sont effectués 24 heures et 48 heures après traitement.

CC(C)(C)OC(=O)/C(F)=C\[C@H]1[C@@H](C(=O)OC2Cc3cccc(-c4ccccc4)c3C2)C1(C)C (stereo partly drawn) [Exemple 4, /1R-/1α,3α (E)/ 3-(3-terbutoxy-3-oxo-2-fluoro-1-propényl) -2,2-diméthyl cyclopropane carboxylatede 2,3-dihydro-4-phényl-1H-inden-2-yle]
CL 50: 173 mg/hl

Reference: EP0215701A1, “Esters of cyclopropanecarboxylic acids and 2,3-dihydro-4-phenyl-1H-inden-2-ol, their preparation, their use as parasiticides and compositions containing them” (ROUSSEL-UCLAF, priority 1985, dated 1987)
